Laboratory results published in US10669271B2, “Heterocyclic compounds as immunomodulators” (Incyte Corporation, priority 2018, dated 2020).

Experiments:
PD-L1 = PD-L1 (Homo sapiens (Human), UniProt Q9NZQ7); test: PD-L1 whole blood internalization assay; format: cell-based; details: 1 ng/ml human interferon γ, PD-L1 expression on CD14+ cells, read-out: Whole Blood (24 HR) IC50
Description: Example D. PD-L1 Whole Blood Internalization Assay
To determine PD-L1 internalization in human whole blood, normal human blood (Biological Specialty Corp, Colmar. Pa.) was incubated in the presence or absence of a concentration range of test compounds and 1 ng/ml human interferon γ (R&D Systems Inc. Minn. […] Blood was then stained with PD-L1 (MIH1, eBioscience; or BD Biosciences San Jose, Calif.), CD14 (Life Technologies, Carlsbad, Calif.) for 30 minutes in the dark at room temperature. Whole Blood/red cells were lysed/fixed (lysis buffer BD Biosciences) for 5 minutes at 37° C. in the dark and then centrifuged at 1600 RPM for 5 minutes. Cells were resuspended in Stain Buffer (BD Bioscience, San Jose, Calif.) and transferred into 96 well round bottom plates (Corning). Cells were gated on CD14+(BD Biosciences) and PD-L1 expression determined by mean fluorescence intensity (MFI) (BD LSRFortessa™ X-20). IC50 determination was performed by fitting the curve of compound percent inhibition versus the log of the compound concentration using the GraphPad Prism 7.0 software.

[1] = tested on: PD-L1 aAPC/CHO-K1 cells and Jurkat-PD-1-NFAT effector cells; test: Nuclear factor of activated T-cells (NFAT) assay; format: cell-based; details: Cricetulus griseus; PD-L1 aAPC/CHO-K1 cells with Jurkat-PD-1-NFAT effector cells, 24 hours
Description: Example C. Nuclear Factor of Activated T-Cells (NFAT) Assay
PD-L1 aAPC/CHO-Klcells (Promega) were maintained in F-12 medium with addition of 10% FBS, 200 μg/ml Hygromycin B, 250 μg/ml Geneticin (G418). Jurkat-PD-1-NFAT effector cells (Promega) were cultured in RPMI 1640 medium supplemented with 10% FBS, 100 μg/ml Hygromycin B, 500 μg/ml G418. The culture media of PD-L1 aAPC/CHO-K1 cells were first replaced with assay medium (RPMI1640 medium with 1% FBS). The PD-L1 aAPC/CHO-K1 cells were then added in a white 384-well white clear bottom assay plate (CELLCOAT® Tissue Culture Plates, Greiner Bio-One) at 8000 per well in 10 μL assay medium. Test compounds were prepared by serial dilution in DMSO and 0.8 μL test compounds in DMSO were first transferred to the 384 REMP plate well (Thermofisher) by PlateMate Plus (Thermofisher) followed with addition of 50 μL plating medium. 5 μL compounds in the assay medium were transferred to the cells with 0.4% DMSO in the final assay at 2 μM. After removing the culture media, 10,000 Jurkat-PD-1-NFAT effector cells in 5 μL assay medium was dispensed into each well. The assay plate was incubated at 37° C., 5% CO2 for 24 hours. After the assay plate was equilibrated to room temp for 15 minutes, 20 µL/well of Bio-Glo™ reagent (Promega) were added. After 8 minutes incubation at room temperature, luminescence was read at with Pherastar microplate reader (BMG Labtech). The fold of induction (FOI) was calculated based on the ratio of luminescence normalized to the DMSO wells within each assay plate. The maximum percentage of induction was reported based on the ratio between the highest FOI of each compound and the maximum FOI of control compound within each assay plate. Wells with DMSO were served as the negative controls and wells containing control compound with the highest FOI were used as positive controls. EC50 determination was performed by fitting the curve of percent control activity versus the log of the compound concentration using the GraphPad Prism 6.0 software.

PD-1/PD-L1 = PD-1/PD-L1 (Homo sapiens (Human), UniProt Q9NZQ7); test: Homogeneous Time-Resolved Fluorescence (HTRF) PD-1/PD-L1 binding assay; details: recombinant human PD-1 and PD-L1, 25° C., pH 7.4
PD-1/PD-L1, sequence (Q9NZQ7 19-238): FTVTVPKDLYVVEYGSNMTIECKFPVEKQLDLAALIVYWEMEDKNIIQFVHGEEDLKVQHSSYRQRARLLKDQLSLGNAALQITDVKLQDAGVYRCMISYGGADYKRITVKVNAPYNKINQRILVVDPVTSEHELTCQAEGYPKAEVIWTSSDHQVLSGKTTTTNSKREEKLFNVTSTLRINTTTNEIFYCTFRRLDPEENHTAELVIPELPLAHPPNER
Description: Example A. Homogeneous Time-Resolved Fluorescence (HTRF) PD-1/PD-L1 Binding Assay
The assays were conducted in a standard black 384-well polystyrene plate with a final volume of 20 μL. Inhibitors were first serially diluted in DMSO and then added to the plate wells before the addition of other reaction components. The final concentration of DMSO in the assay was 1%. The assays were carried out at 25° C. in the PBS buffer (pH 7.4) with 0.05% Tween-20 and 0.1% BSA. Recombinant human PD-L1 protein (19-238) with a His-tag at the C-terminus was purchased from AcroBiosystems (PD1-H5229). Recombinant human PD-1 protein (25-167) with Fc tag at the C-terminus was also purchased from AcroBiosystems (PD1-H5257). PD-L1 and PD-1 proteins were diluted in the assay buffer and 10 μL was added to the plate well. Plates were centrifuged and proteins were preincubated with inhibitors for 40 minutes. The incubation was followed by the addition of 10 μL of HTRF detection buffer supplemented with Europium cryptate-labeled anti-human IgG (PerkinElmer-AD0212) specific for Fc and anti-His antibody conjugated to SureLight®-Allophycocyanin (APC, PerkinElmer-AD0059H). After centrifugation, the plate was incubated at 25° C. for 60 min. before reading on a PHERAstar FS plate reader (665 nm/620 nm ratio). Final concentrations in the assay were—3 nM PD1,10 nM PD-L1, 1 nM europium anti-human IgG and 20 nM anti-His-Allophycocyanin. IC50 determination was performed by fitting the curve of percent control activity versus the log of the inhibitor concentration using the GraphPad Prism 5.0 software.

[2] = tested on: U2OS/PD-L1 cells and Jurkat-PD-1-SHP cells; test: Src homology region 2 domain-containing phosphatase (SHP) assay; format: cell-based; details: Homo sapiens; U2OS/PD-L1 cells with Jurkat-PD-1-SHP cells, 2 hours
Description: Example B. Src Homology Region 2 Domain-Containing Phosphatase (SHP) Assay
U2OS/PD-L1 cells (DiscoveRx Corporation) were maintained in McCoy's 5A medium with addition of 10% FBS, 0.25 μg/ml Puromycin. After removing the culture media, the cell medium was replaced with assay medium (RPMI1640 medium with 1% FBS). The U2OS/PD-L1 cells were then added in 384-well black clear bottom assay plate (CELLCOAT® Tissue Culture Plates, Greiner Bio-One) at 5000 cells per well in 20 μL assay medium. Test compounds were prepared by serial dilution in DMSO and 125 nL compound were first transferred to the 384 REMP plate well (Thermofisher) by ECHO liquid handler (Labcyte) followed with addition of 27.5 μL assay medium. 5 μL/well compounds in the assay medium were transferred to the cell plate with 0.05% DMSO in the final assay at 0.5 μM. Jurkat-PD-1-SHP cells (DiscoveRx Corporation) were cultured in RPMI1640 medium supplemented with 10% FBS, 250 μg/ml Hygromycin B, 500 μg/ml G418. After the replacement of culture media with assay medium, 5,000 Jurkat-PD-1-SHP cells in 20 μL were dispensed into each well. The assay plate was incubated at 37° C., 5% CO2 for 2 hours before 2.5 μL PathHunter reagent 1 (DiscoveRx Corporation) were added to each well. The assay plate was shaken for 1 min at 350 rpm in the dark followed with addition of 10 μL PathHunter reagent 2 (DiscoveRx Corporation). Chemiluminescent signal was recorded with TopCount reader (Perkin Elmer) after incubation at room temperature for 1 hour. Wells with DMSO were served as the positive controls and wells containing no cells were used as negative controls. IC50 determination was performed by fitting the curve of percentage of control activity versus the log of the compound concentration using the GraphPad Prism 6.0 software.

PD-L1, sequence (Q9NZQ7 19-290): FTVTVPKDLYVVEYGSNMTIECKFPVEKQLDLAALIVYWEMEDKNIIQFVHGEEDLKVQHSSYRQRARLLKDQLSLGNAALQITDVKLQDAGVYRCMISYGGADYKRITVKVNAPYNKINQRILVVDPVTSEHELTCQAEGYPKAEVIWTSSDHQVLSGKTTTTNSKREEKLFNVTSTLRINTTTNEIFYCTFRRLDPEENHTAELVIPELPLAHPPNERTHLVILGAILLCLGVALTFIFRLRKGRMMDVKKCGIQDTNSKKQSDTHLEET

SMILES | IC50 (PD-L1) [nM] | IC50 (PD-1/PD-L1) [nM] | IC50 [2] [nM] | EC50 [1] [nM]
Cc1nc(Nc2cccc(-c3cccc(-c4nc5cc(CN6CC[C@@H](C(=O)O)C6)cc(C#N)c5o4)c3C)c2C)c2ncc(CN3CC[C@@](C)(O)C3)cc2n1 [Example 7, (R)-1-((7-cyano-2-(3′-(7-(((R)-3-hydroxy-3-methylpyrrolidin-1-yl)methyl)-2-methylpyrido[3,2-d]pyrimidin-4-ylamino)-2,2′-dimethylbiphenyl-3-yl)benzo[d]oxazol-5-yl)methyl)pyrrolidine-3-carboxylic Acid] | 10 to 100 | ≤ 10 | ≤ 10 | 10 to 100
Cc1nc(Nc2cccc(-c3cccc(-c4nc5cc(CN6CCC(C(=O)O)CC6)cc(C#N)c5o4)c3C)c2C)c2ncc(CN3CC[C@@H](O)C3)cc2n1 [Example 1, (R)-1-((7-cyano-2-(3′-(7-((3-hydroxypyrrolidin-1-yl)methyl)-2-methylpyrido[3,2-d]pyrimidin-4-ylamino)-2,2′-dimethylbiphenyl-3-yl)benzo[d]oxazol-5-yl)methyl)piperidine-4-carboxylic Acid] | 10 to 100 | ≤ 10 | ≤ 10 | 10 to 100
Cc1c(Nc2nc(C(F)F)nc3cc(CN4CC[C@](C)(O)C4)cnc23)cccc1-c1cccc(-c2nc3cc(CN4CCC(C(=O)O)CC4)cc(C#N)c3o2)c1C [Example 31, (S)-1-((7-cyano-2-(3′-(2-(difluoromethyl)-7-((3-hydroxy-3-methylpyrrolidin-1-yl)methyl)pyrido[3,2-d]pyrimidin-4-ylamino)-2,2′-dimethylbiphenyl-3-yl)benzo[d]oxazol-5-yl)methyl)piperidine-4-carboxylic Acid] | 10 to 100 | ≤ 10 | ≤ 10 | ≤ 10
Cc1c(Nc2nc(C(F)F)nc3cc(CN4CC[C@@H](O)C4)cnc23)cccc1-c1cccc(-c2nc3cc(CN4CCC(C(=O)O)CC4)cc(C#N)c3o2)c1C [Example 16, (R)-1-((7-cyano-2-(3′-(2-(difluoromethyl)-7-((3-hydroxypyrrolidin-1-yl)methyl)pyrido[3,2-d]pyrimidin-4-ylamino)-2,2′-dimethylbiphenyl-3-yl)benzo[d]oxazol-5-yl)methyl)piperidine-4-carboxylic Acid] | 10 to 100 | ≤ 10 | ≤ 10 | ≤ 10
Cc1nc(Nc2cccc(-c3cccc(-c4nc5cc(CN6CC[C@@H](C(=O)O)C6)cc(C#N)c5o4)c3C)c2C)c2ncc(CN3CC[C@@H](O)C3)cc2n1 [Example 6, (R)-1-((7-cyano-2-(3′-(7-(((R)-3-hydroxypyrrolidin-1-yl)methyl)-2-methylpyrido[3,2-d]pyrimidin-4-ylamino)-2,2′-dimethylbiphenyl-3-yl)benzo[d]oxazol-5-yl)methyl)pyrrolidine-3-carboxylic Acid] | 10 to 100 | ≤ 10 | ≤ 10 | 10 to 100

Second part, led by results:

IC50 (PD-L1) [nM] | IC50 (PD-1/PD-L1) [nM] | IC50 [2] [nM] | SMILES | EC50 [1] [nM]
10 to 100 | ≤ 10 | ≤ 10 | Cc1nc(Nc2cccc(-c3cccc(-c4nc5cc(CN6CC[C@@](C)(C(=O)O)C6)cc(C#N)c5o4)c3C)c2C)c2ncc(CN3CC[C@@](C)(O)C3)cc2n1 [Example 12, (R)-1-((7-cyano-2-(3′-(7-(((R)-3-hydroxy-3-methylpyrrolidin-1-yl)methyl)-2-methylpyrido[3,2-d]pyrimidin-4-ylamino)-2,2′-dimethylbiphenyl-3-yl)benzo[d]oxazol-5-yl)methyl)-3-methylpyrrolidine-3-carboxylic Acid] | 10 to 100
10 to 100 | ≤ 10 | ≤ 10 | Cc1nc(Nc2cccc(-c3cccc(-c4nc5cc(CN6CC[C@@](C)(C(=O)O)C6)cc(C#N)c5o4)c3C)c2C)c2ncc(CN[C@@H](C)CO)cc2n1 [Example 14, (R)-1-((7-cyano-2-(3′-(7-(((S)-1-hydroxypropan-2-ylamino)methyl)-2-methylpyrido[3,2-d]pyrimidin-4-ylamino)-2,2′-dimethylbiphenyl-3-yl)benzo[d]oxazol-5-yl)methyl)-3-methylpyrrolidine-3-carboxylic Acid] | 10 to 100
100 to 500 | ≤ 10 | 10 to 100 | Cc1nc(Nc2cccc(-c3cccc(-c4nc5cc(CN6CCC(C(=O)O)CC6)cc(C#N)c5o4)c3C)c2C)c2ncc(CNC[C@H](C)O)cc2n1 [Example 5, (S)-1-((7-cyano-2-(3′-(7-((2-hydroxypropylamino)methyl)-2-methylpyrido[3,2-d]pyrimidin-4-ylamino)-2,2′-dimethylbiphenyl-3-yl)benzo[d]oxazol-5-yl)methyl)piperidine-4-carboxylic Acid] | 10 to 100
10 to 100 | ≤ 10 | ≤ 10 | Cc1nc(Nc2cccc(-c3cccc(-c4nc5cc(CN6CC[C@@](C)(C(=O)O)C6)cc(C#N)c5o4)c3C)c2C)c2ncc(CN3CC[C@](C)(O)C3)cc2n1 [Example 13, (R)-1-((7-cyano-2-(3′-(7-(((S)-3-hydroxy-3-methylpyrrolidin-1-yl)methyl)-2-methylpyrido[3,2-d]pyrimidin-4-ylamino)-2,2′-dimethylbiphenyl-3-yl)benzo[d]oxazol-5-yl)methyl)-3-methylpyrrolidine-3-carboxylic Acid] | 10 to 100
